Measured values as given in ChEMBL document CHEMBL6177931, “Exploring diverse frontiers: Advancements of bioactive 4-aminoquinoline-based molecular hybrids in targeted therapeutics and beyond” (Eur J Med Chem, 2024).

Tests used:
[1] = tested on: Plasmodium falciparum; test: Antiplasmodial activity against chloroquine sensitive Plasmodium falciparum 3D7 incubated for 72 hrs by SYBR green I based fluorescence assay; type: functional, organism-based; settings: 3D7, 72 h
[2] = tested on: Plasmodium falciparum; test: Potency index, ratio of chloroquine IC50 to test compound IC50 for antimalarial activity against Plasmodium falciparum Dd2; type: functional
[3] = tested on: Plasmodium falciparum; test: Antimalarial activity against chloroquine resistant sorbitol synchronized Plasmodium falciparum W2 assessed as inhibition of parasite growth incubated for 72 hrs by HRP2 ELISA based assay; type: functional, organism-based; settings: W2, 72 h
[4] = tested on: Plasmodium falciparum; test: Antimalarial activity against chloroquine sensitive sorbitol synchronized Plasmodium falciparum 3D7 assessed as inhibition of parasite growth incubated for 72 hrs by HRP2 ELISA based assay; type: functional, organism-based; settings: 3D7, 72 h
[5] = tested on: Plasmodium falciparum; test: Antiplasmodial activity against chloroquine resistant Plasmodium falciparum K1 infected in human erythrocytes incubated for 48 hrs by lactate dehydrogenase assay; type: functional, organism-based; settings: K1, Erythrocyte

O=C(Cn1cc(COc2ccc(Br)cc2)nn1)NCCNc1ccnc2cc(Cl)ccc12
IC50 [1]: 40 nM

CC(C)Cc1ccc(C(C)C(=O)NCCNc2ccnc3cc(Cl)ccc23)cc1 (stereo not given)
Ratio IC50 [2]: 4

COc1cc(NC(C)CCCN)c2ncccc2c1 (stereo not given) [PRIMAQUINE]
IC50 [3]: 182 nM
IC50 [4]: 1120 nM

CCOC(=O)c1nn(CCNc2ccnc3cc(Cl)ccc23)c2c1C(c1ccc(CC)cc1)C(C#N)=C(N)O2 (stereo not given)
EC50 [5]: 20 nM
